# Experimental data reported in patent publication US20200045983A1, “PROMOTER FOR LEGUMINOUS PLANT GROWTH” (KAO CORPORATION, priority 2017, published 2020).
# Tests used:
# soybean (Glycine max) [1] = test: Effect of soyasaponin Bb on soybean growth, in combination with root nodule bacterium material (Example 2); assay type: in vivo; conditions: for foliar age among the three plots / plant height among the three plots / above-ground part fresh weight vs only the root nodule bacterium material / root nodule weight vs only the root nodule bacterium material / number of lateral buds / increase in the number of root nodules vs only the root nodule bacterium material: 1 mL of 20 μM solution, 24 days; for above-ground part fresh weight vs only the root nodule bacterium material: no significant change; for root nodule weight vs only the root nodule bacterium material: no significant difference; for number of lateral buds: rarely seen in non-application plot; for increase in the number of root nodules vs only the root nodule bacterium material: significant only for genistein
# Procedure: Each Leonard jar filled with culture soil (Takii water-containing cell culture soil TM-1, Takii & Co., Ltd.) was irrigated with 100 mL of tap water. Then, a root nodule bacterium material (“Dr Mametaro®” (Idemitsu Kosan Co., Ltd.) was distributed at a thickness on the order of 5 mm onto the culture soil in the jar using a spatula. Two seeds of soybean (cultivar “Ryokuheki”, Kaneko Seeds Co., Ltd.) were sown by burying at a depth of approximately 1 cm from the culture soil surface. 1 mL of a solution of 20 μM soyasaponin Bb (soyasaponin I, ChromaDex, Inc.) dissolved in 50 mM TAPS buffer (pH 7.7) was added dropwise onto the culture soil covering the seeds using a micropipette. The soyasaponin Bb concentration in the culture soil was approximately 0.3 ppm. Only 1 mL of 50 mM TAPS buffer as a negative control and 1 mL of 20 μM genistein (Gen) solution as a positive control of root nodule formation promotion were applied in the same way as above (for the root nodule formation-promoting effect of genistein, see: Plant and Soil, 1997, 192: 141-151; and Secretions and Exudates in Biological Systems 27-48, Signaling and Communication in Plants 12, Springer-Verlag Berlin Heidelberg, 2012).
# Plant cultivation was performed under the same conditions as in Example 1. 24 days after the sowing, growth indexes (foliar age, plant height, the number of lateral buds, above-ground part fresh weight, underground part fresh weight, the number of root nodules, and root nodule fresh weight) were measured. Each growth index was obtained as to each test plot by determining a mean of two plant individuals in each jar, and subsequently calculating a mean of four jars (n=4). The Tukey-Kramer method was used to test the significant difference among the plots.
# soybean (Glycine max) [2] = test: Effect of saponin formulation and iron phosphate in combination on soybean yield (Example 10); assay type: in vivo; conditions: 50 mg saponin formulation and/or 0.75 mg iron(III) phosphate tetrahydrate per pot, irrigation, 86 days
# Procedure: “Ryokuheki” (Kaneko Seeds Co., Ltd.) was used as soybean seeds. Each Wagner pot of 1/5,000 a was filled with approximately 4 L of culture soil (Takii water-containing cell culture soil, intermedium-acting fertilizer effect type:expanded vermiculite=1:1 (volume ratio)), and three seeds were sown at a depth of approximately 1 cm from the culture soil surface. 50 mg of a saponin formulation (“soybean saponin 80”; AccessOne Co., Ltd.), 0.75 mg of iron(III) phosphate tetrahydrate (Junsei Chemical Co., Ltd.), and a mixture thereof were each suspended in 100 mL of tap water, and the culture soil surface was irrigated with each suspension (“saponin plot”, “iron phosphate plot” and “combination plot”, respectively; both the concentrations of the saponin formulation of the combination plot and the saponin plot in the culture soil were approximately 12.5 ppm and corresponded to approximately 6.1 ppm in terms of the concentration of group B soyasaponin calculated from quantification results (Table 7) in Production Example 1). […] 86 days after the sowing, pods (the pods include grains; the same holds true for the description below) were harvested, and a pod fresh weight per plant (pot) and a pod fresh weight per pod (average weight per pod) were measured (n=7 only for the combination plot, and n=8 for the other plots). […]
# lettuce (Lactuca sativa) = conditions: Non Patent Literatures 7 to 10; cited from earlier work
# soybean (Glycine max) [3] = test: Effect of soyasaponin Bb on soybean growth in culture soil (Example 1); assay type: in vivo; conditions: approx. 0.3 ppm in culture soil, 24 days after sowing
# Procedure: Each Leonard jar (Soil Science and Plant Nutrition, 1983, 29: 97-100) filled with approximately 65 g of culture soil (Takii water-containing cell culture soil TM-1, Takii & Co., Ltd.) was irrigated with 100 mL of tap water. Then, two seeds of soybean (cultivar “Ryokuheki”, Kaneko Seeds Co., Ltd.) were sown by burying at a depth of approximately 1 cm from the culture soil surface. 1 mL of a solution of 20 μM soyasaponin Bb (soyasaponin I, ChromaDex, Inc.) dissolved in 50 mM TAPS buffer (pH 7.7) was added dropwise onto the culture soil covering the seeds using a micropipette. The soyasaponin Bb concentration in the culture soil was approximately 0.3 ppm (ppm by mass; the same holds true for the description below). 50 mM TAPS buffer (pH 7.7) was applied as a control (soyasaponin Bb non-application plot) in the same way as above.
# Plant cultivation was performed in a plant growth chamber (LPH-350SP, Nippon Medical & Chemical Instruments Co., Ltd.). The light conditions were set to 16-hour light (light intensity: 130 μmol/m^2/s)/8-hour dark. The temperature was set to 26° C. for light and 20° C. for dark, and the humidity was set to 50%. Water supply was performed appropriately (approximately once per 7 to 10 days) by the addition of tap water in an appropriate amount to the lower part of the jar. 24 days after the sowing, growth indexes (foliar age, plant height, the number of lateral buds, above-ground part fresh weight, and underground part fresh weight) were measured. Each growth index was obtained as to each of the soyasaponin Bb non-application plot (control) and the soyasaponin Bb application plot by determining a mean of two plant individuals in each jar, and subsequently calculating a mean of four jars (n=4). The Student's t test was used to test the significant difference between the soyasaponin Bb application plot and the non-application plot.
Structure (SMILES),foliar age among the three plots (soybean (Glycine max) [1]),plant height among the three plots (soybean (Glycine max) [1]),above-ground part fresh weight vs only the root nodule bacterium material (soybean (Glycine max) [1]),root nodule weight vs only the root nodule bacterium material (soybean (Glycine max) [1]),number of lateral buds (soybean (Glycine max) [1]),increase in the number of root nodules vs only the root nodule bacterium material (soybean (Glycine max) [1]),increase in pod fresh weight per pod with respect to the non-application plot (soybean (Glycine max) [2]; significant (5% or less)),increase in pod fresh weight per plant with respect to the non-application plot (soybean (Glycine max) [2]; significant only for combination),lettuce radicle elongation (lettuce (Lactuca sativa)),foliar age vs non-application plot (soybean (Glycine max) [3]),plant height vs non-application plot (soybean (Glycine max) [3]),increase in the number of lateral buds with respect to the non-application plot (soybean (Glycine max) [3]; statistically significant),increase in underground part fresh weight with respect to the non-application plot (soybean (Glycine max) [3]; statistically significant),"increase in above-ground part fresh weight with respect to the non-application plot (soybean (Glycine max) [3]; tendency, no significant difference)","increase in underground part fresh weight with respect to only the root nodule bacterium material (soybean (Glycine max) [1]; 1 mL of 20 μM solution (approx. 0.3 ppm in culture soil), 24 days after sowing, statistically significant)"
"O=c1c(-c2ccc(O)cc2)coc2cc(O)cc(O)c12 [genistein, reference compound]",did not differ significantly,did not differ significantly,tendency toward increase,tendency toward increase,on average one per individual,approximately 1.7 times,–,–,–,–,–,–,–,–,–
"O.O.O.O.O=P([O-])([O-])[O-].[Fe+3] [iron phosphate, iron(III) phosphate tetrahydrate]",–,–,–,–,–,–,approximately 10%,approximately 10%,–,–,–,–,–,–,–
C[C@@H]1O[C@@H](O[C@H]2[C@H](O[C@H]3[C@H](O[C@H]4CC[C@@]5(C)[C@@H](CC[C@]6(C)[C@@H]5CC=C5[C@@H]7CC(C)(C)C[C@@H](O)[C@]7(C)CC[C@]56C)[C@@]4(C)CO)O[C@H](C(=O)O)[C@@H](O)[C@@H]3O)O[C@H](CO)[C@H](O)[C@@H]2O)[C@H](O)[C@H](O)[C@H]1O [soyasaponin Bb],did not differ significantly,did not differ significantly,tendency toward increase,tendency toward increase,on average one per individual,approximately 1.3 times,–,–,relatively weak or was not seen,did not differ significantly,did not differ significantly,approximately 2.7 times,approximately 2.2 times,approximately 1.1 times,approximately 1.5 times
"CC1=C(O)C(=O)C[C@H](O[C@@H]2CC(C)(C)C[C@H]3C4=CC[C@@H]5[C@@]6(C)CC[C@H](O[C@@H]7O[C@H](C(=O)O)[C@@H](O)[C@H](O)[C@H]7O[C@@H]7O[C@H](CO)[C@H](O)[C@H](O)[C@H]7O[C@@H]7O[C@@H](C)[C@H](O)[C@@H](O)[C@H]7O)[C@](C)(CO)[C@@H]6CC[C@@]5(C)[C@]4(C)CC[C@@]23C)O1 [soyasaponin βg, reference compound]",–,–,–,–,–,–,–,–,promoted,–,–,–,–,–,–
